# Source: US6552022B1, “Benzamide derivatives and their use as ApoB-100 secretion inhibitors” (SmithKline Beecham Corporation, priority 1998, dated 2003)
row,melting point,SMILES
1,207 to 209 °C,"COc1ccc(-c2ccc(C(C)C)cc2)c(C(=O)Nc2ccc(N3CCN(CC(N)=O)CC3)cc2)c1 [Example 38, 4′-Isopropyl-4-methoxy-biphenyl-2-carboxylic Acid [4-(4-carbamoylmethyl-piperazin-1-yl)-phenyl]-amide]"
2,196 to 198 °C,"Cc1cccc(C(=O)Nc2ccc(N3CCN(CC(N)=O)CC3)cc2)c1-c1ccc(C(F)(F)F)cc1 [Example 40, 6-Methyl-4′-trifluoromethyl-biphenyl-2-carboxylic acid [4-(4-carbamoylmethyl-piperazin-1-yl)-phenyl]-amide]"
3,167 to 169 °C,"CCOC(=O)CN1CCN(c2ccc(NC(=O)c3ccccc3-c3ccc(C(F)(F)F)cc3)cc2)CC1 [Example 42, 4′-Trifluoromethyl-biphenyl-2-carboxylic acid [4-(4-ethoxycarbonylmethyl-piperazin-1-yl)-phenyl)-amide]"
4,176 to 178 °C,"CCOCCN1CCN(c2ccc(NC(=O)c3ccccc3-c3ccc(C(F)(F)F)cc3)cc2)CC1 [Example 43, 4′-Trifluoromethyl-biphenyl-2-carboxylic acid [4-(4-(2-ethoxy-ethyl)-piperazin-1-yl]-phenyl]-amide]"
5,208 to 210 °C,"O=C(Nc1ccc(N2CCN(CCCO)CC2)cc1)c1ccccc1-c1ccc(C(F)(F)F)cc1 [Example 44, 4′-Trifluoromethyl-biphenyl-2-carboxylic acid [4-(4-(3-hydroxy-propyl)-piperazin-1-yl]-phenyl]-amide]"
6,189 to 191 °C,"O=C(Nc1ccc(N2CCN(Cc3ccc4c(c3)OCO4)CC2)cc1)c1ccccc1-c1ccc(C(F)(F)F)cc1 [Example 48, 4′-Trifluoromethyl-biphenyl-2-carboxylic acid [4-(4-(3,4-methylenedioxy-benzyl)-piperazin-1-yl)-phenyl]-amide]"
7,199 to 201 °C,"NC(=O)c1cccc(CN2CCN(c3ccc(NC(=O)c4ccccc4-c4ccc(C(F)(F)F)cc4)cc3)CC2)c1 [Example 50, 4′-Trifluoromethyl-biphenyl-2-carboxylic acid {4-[4-(3-carbamoyl-benzyl)-piperazin-1-yl]-phenyl)amide]"
8,198 to 200 °C,"O=C(Nc1ccc(N2CCN(Cc3ccc(F)cc3)CC2)cc1)c1ccccc1-c1ccc(C(F)(F)F)cc1 [Example 52, 4′-Trifluoromethyl-biphenyl-2-carboxylic acid [4-[4-(4-fluoro-benzyl)-piperazin-1-yl]-phenyl]-amide]"
9,190 to 192 °C,"COC(=O)c1cccc(CN2CCN(c3ccc(NC(=O)c4ccccc4-c4ccc(C(F)(F)F)cc4)cc3)CC2)c1 [Example 55, 4′-Trifluoromethyl-biphenyl-2-carboxylic acid [4-[4-(3-carbomethoxy-benzyl)-piperazin-1-yl]-phenyl]-amide]"
10,183 to 185 °C,"O=C(Nc1ccc(N2CCN(Cc3cnccn3)CC2)cc1)c1ccccc1-c1ccc(C(F)(F)F)cc1 [Example 58, 4′-Trifluoromethyl-biphenyl-2-carboxylic acid [4-(4-pyrazin-2-ylmethyl-piperazin-1-yl)-phenyl]-amide]"
11,118 to 120 °C,"Cn1ccnc1CN1CCN(c2ccc(NC(=O)c3ccccc3-c3ccc(C(F)(F)F)cc3)cc2)CC1 [Example 60, 4′-Trifluoromethyl-biphenyl-2-carboxylic acid [4-[4-(1-methyl-1H-imidazol-2-ylmethyl)-piperazin-1-yl)-phenyl]-amide]"
12,207 to 209 °C,"CCCN1CCN(c2ccc(NC(=O)c3ccccc3-c3ccc(C(F)(F)F)cc3)cc2)CC1 [Example 65, 4′-Trifluoromethyl-biphenyl-2-carboxylic acid [4-(4-propyl-piperazin-1-yl)-phenyl]-amide]"
13,181 to 183 °C,"CC(=O)c1cccc(CN2CCN(c3ccc(NC(=O)c4ccccc4-c4ccc(C(F)(F)F)cc4)cc3)CC2)c1 [Example 66, 4′-Trifluoromethyl-biphenyl-2-carboxylic acid [4-(4-(3-acetyl-benzyl)-piperazin-1-yl)-phenyl]-amide]"
